Results reported in patent US20060194235A1, “HLJ1 gene expression” (priority 2005, published 2006).

What was measured:
PCY3 cells = experiment: In vitro Matrigel invasion assay; format: cell-based, human; conditions: siRNA treated
Experimental: The metastatic potential of tumors depends, in part, on the ability of the tumor cells to invade through a basement membrane and migrate to distant sites. The ability of cells transfected with HLJ1 to penetrate a Matrigel™ membrane using an in vitro assay, which is a modified Boyden chamber assay, as described in Example 15, was determined as an index of the metastatic potential of these cells. The YY1 transfectant PCY3, which expressed a high level of HLJ1, reduced cell invasion capability to about 56% and about 61% of the levels of CL1-0 and mock transfectants, respectively (68).
In vitro Matrigel™ invasion assays were performed in 6.5-mm transwell chambers (8 μm pore size; Costar®). The transwell filters in the chambers were coated with Matrigel™ (Becton Dickinson, Franklin Lakes, N.J.) (58). After a 16 or 24 h incubation, the filter was gently removed from the chamber, and the noninvasive cells on the upper surface were removed by wiping with a cotton swab. The cells that invaded the Matrigel™ and attached to the lower surface of the filter were fixed with methanol and stained with Giemza solution (Sigma, St. Louis, Mo.). The number of cells attached to the lower surface of the polycarbonate filter was counted under a light microscope at 200× magnification. Five fields of adherent cells were randomly counted in each well and the results were numerically averaged. […]

HLJ1 = experiment: siRNA knock-down of endogenous HLJ1 in the YY1 transfected cell line PCY3; format: cell-based, human; conditions: PCY3 cells
Source text: Inhibiting the ability of transfected cells to express HLJ1 can restore their invasive capacity. Small inhibiting RNA (siRNA) specific for HLJ1 decreased the endogenous HLJ1 RNA level in the YY1 transfected cell line, PCY3.
Two siRNA sequences were synthesized according to standard protocols (68). The sequence of HLJ1-A was […]. The sequence of HLJ1-D was […]. HLJ1-A and HLJ1-D reduced its expression by 64%. […] A negative control, scrambled siRNA, had no significant effect on HLJ1 expression or invasive capacity.

Substance: HLJ1-D: siRNA specific for HLJ1, sequence AAACGCTGATGGAAGGAGTTA (other strand not given here)
- ability of PCY3 cells to invade through Matrigel, compared to PCC2 cells (PCY3 cells): 87%
- reduction of HLJ1 expression (HLJ1): 64%
